Results reported in patent publication US9132131B2, “Use of adenosine A3 receptor agonists for treatment of neuropathic pain” (Saint Louis University, priority 2011, dated 2015).

What was measured:
[1] = tested on: CCI of the sciatic nerve (mechano-allodynia); assay: CCI model of neuropathic pain, mechano-allodynia (von Frey PWT); type: in vivo, mice
Procedure: CCI model of neuropathic pain. CCI to the sciatic nerve of the left hind leg in mice was performed under general anaesthesia using the well-characterized Bennett model. Briefly, mice (weighing 25-30 g at the time of surgery) were anesthetized with 3% isoflurane/100% O2 inhalation and maintained on 2% isoflurane/100% O2 for the duration of surgery. The left thigh was shaved, scrubbed with Nolvasan® and a small incision (1-1.5 cm in length) was made in the middle of the lateral aspect of the left thigh to expose the sciatic nerve. The nerve was loosely ligated around the entire diameter of the nerve at three distinct sites (spaced 1 mm apart) using silk sutures (6.0). The surgical site was closed with a single muscle suture and a skin clip. Pilot studies established that under our experimental conditions peak mechano-allodynia develops by day 5-day 7 (D5-D7) following CCI. Test substances or their vehicles were given subcutaneously (s.c.), intraperitoneally (i.p.) or orally by gavage (0.1 ml) at peak mechano-allodynia (D7).
Behavioral testing. […] The plantar aspect of hindpaws were probed three times with calibrated von Frey filaments (Stoelting, mice: 0.07-2.00 grams; rats: 0.407-26 grams) according to the “up-and-down” method. […] Briefly, each rat was placed in a Plexiglas chamber (28×40×35-cm, wire mesh floor) and after its acclimation, a servo-controlled mechanical stimulus was applied to the plantar surface that exerted a progressively increasing punctate pressure up to 50 grams within 10 seconds. Mechanical threshold was assessed three times at each time point to yield a mean value, reported as PWT (grams). […] Mechano-hyperalgesia was assessed in rats by the Randall and Sellitto paw pressure test using an analgesiometer (Ugo Basile). The nociceptive threshold was defined as the force (grams) at which the rat withdrew its paw (cut off set at 250 grams).
Determining ED50 values. Dose response data were curve-fitted using the least sum of square method by a normalized 4-parameter, variable slope non-linear analysis of the % Reversal of Mechano-allodynia in CCI and % Prevention of Mechano-allodynia or Mechano-hyperalgesia in CIPN using GraphPad Prism (Release 5.03, GraphPad Software, Inc.) from which the ED50 was determined and reported with the 95% confidence interval (95% CI). In the CCI model, the % Reversal of Mechano-allodynia=(PWT1h−PWTD7)/(PWTD0−PWTD7)×100, where PWTD0=Paw Withdrawal Threshold (g) at D0, PWT1h=Paw Withdrawal Threshold (g) at 1 hour after the administration of IB-MECA, gabapentin, amitriptyline, or combinations of IB-MECA with gabapentin or amitriptyline, and PWTD7=Paw Withdrawal Threshold (grams) at D7 prior to drug administration.
Statistical Analysis. Data are expressed as mean±SD for n animals. Behavioral data were analyzed by two-way repeated measures ANOVA with Bonferroni comparisons (full time course studies) or one-way ANOVA Dunnett's comparisons (1 hour behavioral data). The dose response curves were compared to a globally fitted curve using the extra sum-of-squares F-test comparisons to determine whether the data represented distinct curves between treatments. Significant differences were defined at a P<0.05. All statistical analysis was performed using GraphPad Prism (v5.03, GraphPad Software, Inc.).

[2] = tested on: paclitaxel-induced neuropathic pain; assay: Paclitaxel-induced neuropathic pain (mechano-allodynia, mechano-hyperalgesia); type: in vivo, rats; details: 0.2 μmol/kg/d (not shown)
[3] = tested on: acute nociception (tail flick latency); assay: Tail flick assay for acute nociception; type: in vivo, mice; details: IB-MECA, MRS1898 0.5 μmol/kg i.p. at 30, 60, 120 minutes; morphine 35 μmol/kg s.c. positive control
Procedure: (§1) Tail flick and hot plate assay in mice for acute nociception. The tail flick test, which measures latency(s) of tail withdrawal from a noxious radiant heat source (Ugo Basile; model number 37360) was used to measure thermal nociceptive sensitivity in mice with baseline latencies of 3-5 seconds and a cut-off time of 15 seconds to prevent tissue injury. Tail flick latencies were taken before and at 30, 60 and 120 minutes after i.p. injection of IB-MECA, MRS1898 (0.5 μmol/kg) or its vehicle (0.1% DMSO in saline). For the hot plate test, nociceptive thresholds were determined as previously reported by our group by measuring latencies (in seconds) of mice placed in a transparent glass cylinder on a hot plate maintained at 52° C.. Responses indicative of nociception included intermittent lifting and/or licking of the hindpaws or escape behavior. Hot plate latencies were taken in mice from all groups before and after drug administration. A cut-off latency of 15 seconds was employed to prevent tissue damage.

[4] = tested on: acute nociception (hot plate latency); assay: Hot plate assay for acute nociception; type: in vivo, mice; details: 0.5 μmol/kg
Procedure: as §1

[5] = tested on: RPMI 8226 multiple myeloma cells; assay: MTT cell survival assay, RPMI 8226; type: cell-based, human; details: 48 hours
Procedure: Cells were cultured and assayed in DMEM (SKBR3; human breast cancer cells), L15 (SW480; human colon cancer cells) or RPMI […] (RPMI 8226; human multiple myeloma cells) supplemented with heat-denatured 10% FBS and penicillin/streptomycin at 37° C., 0% (SW480) or 5% CO2 (SKBR3 and RPMI 8226), 95% humidity. The antitumor activities of these agents were measured in cells (6.25×10^4 cells/well) cultured overnight in 24-well plates (SKBR3 and SW480; BD Biosciences) or 12 mm×7.5 mm culture tubes (RPMI 8226; BD Biosciences) in complete media. […] Two naïve control wells were included as a control for 100% survival. Cell survival was determined using a MTT (3-(4,5-dimethylthiazol-2-yl)-2,5-diphenyltetrazolium bromide) assay adapted from a previously described assay. Cells were incubated with MTT (500 μg/ml) for 75 minutes at 37° C., 0% or 5% CO2, 95% humidity, removing the media and dissolving the tetrazolium crystals in isopropanol. […] The antitumor effects of IB-MECA alone were determined as % Survivability=(A560-570 nm of chemotherapeutic vehicle+IB-MECA)/(mean A560-570 nm of the naïve control wells)×100. The LD50 of each chemotherapeutic agent+IB-MECA or its vehicle was calculated using three-parameter non-linear analysis using % Survivability=(A560-570 nm of chemotherapeutic+IB-MECA or its vehicle)/(mean A560-570 nm chemotherapeutic vehicle+vehicle of IB-MECA)×100. […]

[6] = subjects receiving the drug; cited from earlier work

Structure (SMILES) | effect on PWT in contralateral paws ([1]; D7 after CCI, drug alone) | reversal of mechano-allodynia in ipsilateral paws ([1]; single dose D7, IB-MECA 0.2-2, CI-IB-MECA 0.6, MRS1898 0.5 μmol/kg i.p., morphine 0.11-35 s.c., gabapentin 18-584 i.p., amitriptyline 3-191 μmol/kg oral) | effect on paclitaxel-induced neuropathic pain [2] | effect on tail flick latency [3] | effect on the hot plate [4] | LD50 [5] | incidence of CIPN [6]
CNC(=O)[C@]12C[C@@H]1[C@@H](n1cnc3c(NCc4cccc(I)c4)nc(Cl)nc31)[C@H](O)[C@@H]2O [MRS1898, (1′R,2′R,3′S,4′R,5′S)-4-{2-chloro-6-[(3-iodophenylmethyl)amino]purin-9-yl}-1-(methylaminocarbonyl)-bicyclo[3.1.0]hexane-2,3-diol] | had no effect | reversed mechano-allodynia | completely blocked | lacked effect | had no effect |  | 
CC(C)C[C@H](NC(=O)[C@H](Cc1ccccc1)NC(=O)c1cnccn1)B(O)O [Bortezomib] |  |  |  |  |  | 27 nM | 36-55%
